pIC50: −log10 of the molar value.
Experiments:
human DP2 receptor = molecular target: T1, human DP2 receptor (Homo sapiens, UniProt Q9Y5Y4); test: DP2/CRTH2 radioligand binding assay using [3H]PGD2; conditions: membranes of HEK293 cells expressing recombinant human DP2, 1 nM [3H]PGD2; read-out: hDP2
T1 construct: expressed in transfected cells
T1 sequence (Q9Y5Y4 1-395): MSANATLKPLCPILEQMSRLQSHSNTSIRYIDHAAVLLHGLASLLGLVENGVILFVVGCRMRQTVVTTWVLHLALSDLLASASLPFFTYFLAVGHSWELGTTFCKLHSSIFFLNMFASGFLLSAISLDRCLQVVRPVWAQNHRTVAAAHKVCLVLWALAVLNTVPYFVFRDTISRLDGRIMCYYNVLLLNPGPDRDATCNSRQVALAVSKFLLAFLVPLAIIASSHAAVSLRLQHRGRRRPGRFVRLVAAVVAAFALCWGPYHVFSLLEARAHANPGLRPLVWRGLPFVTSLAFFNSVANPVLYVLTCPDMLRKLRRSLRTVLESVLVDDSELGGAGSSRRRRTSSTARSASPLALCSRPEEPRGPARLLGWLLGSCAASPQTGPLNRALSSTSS
Experimental: The ability of a compound to bind to the human DP2 receptor is assessed via a radioligand binding assay using [^3H]PGD2. HEK293 cells stably expressing recombinant human DP2 are resuspended in 10 mM Hepes, 7.4 containing 1 mM DTT, lysed and centrifuged at 75,000×g to pellet the membranes. The membranes are resuspended in 10 mM Hepes, 7.4 containing 1 mM DTT and 10% glycerol to approximately 5 mg protein/ml. Membranes (2-10 μg protein/well) are incubated in 96-well plates with 1 nM [^3H]PGD2 and test compound in Assay Buffer (50 mM Hepes, 10 mM MnCl2, 1 mM EDTA, plus or minus 0.2% human serum albumin, pH 7.4) for 60 minutes at room temperature. The reactions are terminated by rapid filtration through Whatman GF/C glass fibre filter plates. The filter plates were pre-soaked in 0.33% polythylenimine for 30 minutes at room temperature then washed in Wash Buffer (50 mM Hepes, 0.5 M NaCl pH 7.4) prior to harvesting. After harvesting, the filter plates are washed 3 times with 1 ml cold Wash Buffer then dried. Scintillant is then added to the plates and the radioactivity retained on the filters is determined on a Packard TopCount (Perkin Elmer). Specific binding is determined as total radioactive binding minus non-specific binding in the presence of 10 μM PGD2. IC50s were determined using GraphPad prism analysis of drug titration curves.

human DP1 receptor = molecular target: T2, human DP1 receptor (Homo sapiens, UniProt Q13258); test: DP1 radioligand membrane binding assay using [3H]BWA868C; conditions: human platelet membranes, 2 nM [3H]BWA868C; read-out: hDP1
T2 construct: tissue Biological Specialty Corporation; host or cells: human platelets, membrane preparation
T2 sequence (Q13258 1-359): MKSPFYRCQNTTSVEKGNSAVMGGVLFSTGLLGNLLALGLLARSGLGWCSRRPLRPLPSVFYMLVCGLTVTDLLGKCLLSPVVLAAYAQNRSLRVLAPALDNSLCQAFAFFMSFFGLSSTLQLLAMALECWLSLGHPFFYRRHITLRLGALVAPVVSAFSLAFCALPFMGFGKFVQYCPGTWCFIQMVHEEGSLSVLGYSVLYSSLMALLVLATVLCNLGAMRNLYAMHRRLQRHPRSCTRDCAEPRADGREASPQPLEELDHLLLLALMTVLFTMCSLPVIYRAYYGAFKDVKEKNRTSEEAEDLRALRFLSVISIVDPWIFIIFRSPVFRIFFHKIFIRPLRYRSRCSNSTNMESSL
Experimental: The ability of a compound to bind to the human DP1 receptor was evaluated via a radioligand membrane binding assay using the DP1 selective synthetic ligand [^3H]BWA868C. Packed human platelets (Biological Specialty Corporation), were resuspended in 6 volumes of Hepes/HBSS buffer (10 mM Hepes, 1 mM DTT in Hanks Balanced Salt Solution (HBSS)), lysed and centrifuged at 75,000×g to pellet the membranes. Membranes were resuspended in Hepes/HBSS buffer to approximately 12 mg protein/ml. Membranes (20 μg protein/well) are incubated in 96-well plates with 2 nM [^3H]BWA868C and test compound in Assay Buffer (50 mM Hepes, 10 mM MnCl2, 1 mM EDTA, plus or minus 0.2% human serum albumin, pH 7.4) for 60 minutes at room temperature. The reactions are terminated by rapid filtration through Whatman GF/C glass fibre filter plates. The filter plates were pre-soaked in 0.33% polethylenimine for 30 minutes at room temperature then washed in Wash Buffer (50 mM Hepes, 0.5 M NaCl pH 7.4) prior to harvesting. After harvesting, the filter plates are washed 3 times with 1 ml cold Wash Buffer then dried. Scintillant is then added to the plates and the radioactivity retained on the filters is determined on a Packard TopCount (Perkin Elmer). Specific binding is determined as total radioactive binding minus non-specific binding in the presence of 10 μM BW A868C. IC50s were determined using GraphPad prism analysis of drug titration curves.

Structure (SMILES)	pIC50 (human DP2 receptor)	pIC50 (human DP1 receptor)
COc1ccc(CC(=O)O)cc1Oc1ccc(NC(=O)C(C)(C)C)cc1CSC(C)(C)C [{3-[2-tert-Butylsulfanylmethyl-4-(2,2-dimethyl-propionylamino)-phenoxy]-4-methoxy-phenyl}-acetic acid]	> 6.52	< 6.00
CCOc1ccc(-c2ccc(-c3cc(CC(=O)O)ccc3OC)c(CN(CC)C(=O)C3CC3)c2)cn1 [[2′-[(N-cyclopropanecarbonyl-N-ethyl-amino)-methyl]-4′-(6-ethoxy-pyridin-3-yl)-6-methoxy-biphenyl-3-yl]-acetic acid]	–	< 6.00
CCN(Cc1cc(C(F)(F)F)ccc1-c1cncc(CC(=O)O)c1)C(=O)OCc1ccccc1 [(5-{2-[(N-benzyloxycarbonyl-N-ethyl-amino)-methyl]-4-trifluoromethyl-phenyl}-pyridin-3-yl)-acetic acid]	> 6.52	< 6.00
CN(C1CCc2c(c3ncccc3n2CC(=O)O)C1)S(=O)(=O)c1ccc(F)cc1 (stereo not shown) [{8-[(4-fluoro-benzenesulfonyl)-methyl-amino]-6,7,8,9-tetrahydro-pyrido[3,2-b]indol-5-yl}-acetic acid]	> 6.52	< 6.00
